Laboratory results published in ChEMBL document CHEMBL5034010, “Novel Cephalosporin Conjugates Display Potent and Selective Inhibition of Imipenemase-Type Metallo-β-Lactamases” (J Med Chem, 2021).
Converted amounts (≈) assume the structure as drawn. The source made the active and inactive calls. The calls are words filed in the database; no cut-off is given here.

What was measured:
Escherichia coli [1] = assay: Inhibition of Metallo-beta-lactamase VIM-2 in Escherichia coli clinical isolate assessed as fold reduction in meropenem MIC at 128 ug/ml; settings: dose 128.0 µg/ml
Escherichia coli [2] = assay: Inhibition of Metallo-beta-lactamase NDM-1 in Escherichia coli clinical isolate assessed as fold reduction in meropenem MIC at 32 ug/ml; settings: dose 32.0 µg/ml
Enterobacter cloacae [3] = assay: Inhibition of Metallo-beta-lactamase IMP-1 in Enterobacter cloacae clinical isolate assessed as fold reduction in meropenem MIC at 32 ug/ml; settings: dose 32.0 µg/ml
Escherichia coli [4] = assay: Inhibition of Metallo-beta-lactamase NDM-1 in Escherichia coli clinical isolate assessed as MIC for meropenem antibacterial activity at 64 ug/ml (reference value: 64 ug/ml); settings: dose 64.0 µg/ml
Klebsiella pneumoniae [5] = assay: Inhibition of Metallo-beta-lactamase IMP-28 in Klebsiella pneumoniae clinical isolate assessed as MIC for meropenem antibacterial activity at 64 ug/ml (reference value: 4 ug/ml); settings: dose 64.0 µg/ml
Klebsiella pneumoniae [6] = assay: Antibacterial activity against beta-lactamase IMP-28 producing Klebsiella pneumoniae clinical isolate measured upto 128 ug/ml; type: functional, organism-based
Escherichia coli [7] = assay: Antibacterial activity against beta-lactamase VIM2 producing Escherichia coli clinical isolate measured upto 128 ug/ml; type: functional, organism-based
Klebsiella pneumoniae [8] = assay: Inhibition of Metallo-beta-lactamase IMP-28 in Klebsiella pneumoniae clinical isolate assessed as fold reduction in meropenem MIC at 64 ug/ml; settings: dose 64.0 µg/ml
Klebsiella pneumoniae [9] = assay: Inhibition of Metallo-beta-lactamase IMP-28 in Klebsiella pneumoniae clinical isolate assessed as MIC for meropenem antibacterial activity at 128 ug/ml (reference value: 4 ug/ml); settings: dose 128.0 µg/ml
Escherichia coli [10] = assay: Inhibition of Metallo-beta-lactamase NDM-1 in Escherichia coli clinical isolate assessed as MIC for meropenem antibacterial activity at 32 ug/ml (reference value: 64 ug/ml); settings: dose 32.0 µg/ml
Klebsiella pneumoniae [11] = assay: Substrate activity at Klebsiella pneumoniae beta-lactamase IMP-28 assessed as compound hydrolysis by measuring Kcat/Km by Michaelis-Menten analysis
Escherichia coli [12] = assay: Inhibition of Metallo-beta-lactamase VIM-2 in Escherichia coli clinical isolate assessed as MIC for meropenem antibacterial activity at 32 ug/ml (reference value: 8 ug/ml); settings: dose 32.0 µg/ml
Enterobacter cloacae [13] = assay: Inhibition of Metallo-beta-lactamase IMP-1 in Enterobacter cloacae clinical isolate assessed as fold reduction in meropenem MIC at 128 ug/ml; settings: dose 128.0 µg/ml
Enterobacter cloacae [14] = assay: Antibacterial activity against beta-lactamase IMP1 producing Enterobacter cloacae clinical isolate measured upto 128 ug/ml; type: functional, organism-based
[15] = Stability of the compound in Muller hinton broth assessed compound remaining measured after 15 hrs by HPLC analysis; type: physicochemical; settings: Mueller Hinton broth, read-out: Stability
Escherichia coli [16] = assay: Inhibition of Metallo-beta-lactamase VIM-2 in Escherichia coli clinical isolate assessed as fold reduction in meropenem MIC at 64 ug/ml; settings: dose 64.0 µg/ml
Escherichia coli [17] = assay: Inhibition of Metallo-beta-lactamase NDM-1 in Escherichia coli clinical isolate assessed as MIC for meropenem antibacterial activity at 128 ug/ml (reference value: 64 ug/ml); settings: dose 128.0 µg/ml
Klebsiella pneumoniae [18] = assay: Inhibition of Metallo-beta-lactamase IMP-28 in Klebsiella pneumoniae clinical isolate assessed as fold reduction in meropenem MIC at 32 ug/ml; settings: dose 32.0 µg/ml
Escherichia coli [19] = assay: Inhibition of Metallo-beta-lactamase NDM-1 in Escherichia coli clinical isolate assessed as fold reduction in meropenem MIC at 64 ug/ml; settings: dose 64.0 µg/ml
Escherichia coli [20] = assay: Antibacterial activity against beta-lactamase NDM1 producing Escherichia coli clinical isolate measured upto 128 ug/ml; type: functional, organism-based
Enterobacter cloacae [21] = assay: Inhibition of Metallo-beta-lactamase IMP-1 in Enterobacter cloacae clinical isolate assessed as MIC for meropenem antibacterial activity at 128 ug/ml (Rvb =16 ug/ml); settings: dose 128.0 µg/ml
Klebsiella pneumoniae [22] = assay: Inhibition of Metallo-beta-lactamase IMP-28 in Klebsiella pneumoniae clinical isolate assessed as fold reduction in meropenem MIC at 128 ug/ml; settings: dose 128.0 µg/ml
Enterobacter cloacae [23] = assay: Inhibition of Metallo-beta-lactamase IMP-1 in Enterobacter cloacae clinical isolate assessed as MIC for meropenem antibacterial activity at 32 ug/ml (Rvb =16 ug/ml); settings: dose 32.0 µg/ml
Klebsiella pneumoniae [24] = assay: Inhibition of Metallo-beta-lactamase IMP-28 in Klebsiella pneumoniae clinical isolate assessed as MIC for meropenem antibacterial activity at 32 ug/ml (reference value: 4 ug/ml); settings: dose 32.0 µg/ml
Escherichia coli [25] = assay: Inhibition of Metallo-beta-lactamase NDM-1 in Escherichia coli clinical isolate assessed as fold reduction in meropenem MIC at 128 ug/ml; settings: dose 128.0 µg/ml
Escherichia coli [26] = assay: Inhibition of Metallo-beta-lactamase VIM-2 in Escherichia coli clinical isolate assessed as MIC for meropenem antibacterial activity at 128 ug/ml (reference value: 8 ug/ml); settings: dose 128.0 µg/ml
[27] = Inhibition of Klebsiella pneumoniae beta-lactamase IMP-28 using nitrocefin chromogenic substrate measured after 15 to 60 min at 25 degC by microplate reader
[28] = Inhibition of Escherichia coli beta-lactamase VIM-2 using nitrocefin chromogenic substrate measured after 15 to 60 min at 25 degC by microplate reader
Enterobacter cloacae [29] = assay: Inhibition of Metallo-beta-lactamase IMP-1 in Enterobacter cloacae clinical isolate assessed as MIC for meropenem antibacterial activity at 64 ug/ml (Rvb =16 ug/ml); settings: dose 64.0 µg/ml
[30] = Inhibition of Enterobacter cloacae IMP-1 using nitrocefin chromogenic substrate measured after 15 to 60 min at 25 degC by microplate reader
Enterobacter cloacae [31] = assay: Inhibition of Metallo-beta-lactamase IMP-1 in Enterobacter cloacae clinical isolate assessed as fold reduction in meropenem MIC at 64 ug/ml; settings: dose 64.0 µg/ml
Klebsiella pneumoniae [32] = assay: Substrate activity at Klebsiella pneumoniae beta-lactamase IMP-28 assessed as compound hydrolysis by measuring Km by Michaelis-Menten analysis
[33] = Inhibition of Escherichia coli beta-lactamase NDM-1 using nitrocefin chromogenic substrate measured after 15 to 60 min at 25 degC by microplate reader
Klebsiella pneumoniae [34] = assay: Substrate activity at Klebsiella pneumoniae beta-lactamase IMP-28 assessed as compound hydrolysis by measuring Kcat by Michaelis-Menten analysis
Escherichia coli [35] = assay: Inhibition of Metallo-beta-lactamase VIM-2 in Escherichia coli clinical isolate assessed as fold reduction in meropenem MIC at 32 ug/ml; settings: dose 32.0 µg/ml
Escherichia coli [36] = assay: Inhibition of Metallo-beta-lactamase VIM-2 in Escherichia coli clinical isolate assessed as MIC for meropenem antibacterial activity at 64 ug/ml (reference value: 8 ug/ml); settings: dose 64.0 µg/ml
Klebsiella pneumoniae [37] = assay: Inhibition of Klebsiella pneumoniae beta Metallo-beta-lactamase IMP-28
Enterobacter cloacae [38] = assay: Inhibition of Enterobacter cloacae Metallo-beta-lactamase IMP-1
[39] = Binding affinity to Zinc incubated for 2 hrs measured by isothermal titration calorimetric assay

Structure (SMILES): O=C(Cc1ccccc1)N[C@@H]1C(=O)N2C(C(=O)O)=C(CS[C@@H](Cc3ccccc3)C(=O)O)CS[C@H]12
- fold change (FC) (Escherichia coli [1]): 2
- fold change (FC) (Escherichia coli [2]): 2
- fold change (FC) (Enterobacter cloacae [3]): 2
- MIC (Escherichia coli [4]): 32 µg/mL (≈ 62.4 µM)
- MIC (Klebsiella pneumoniae [5]): 0.5 µg/mL (≈ 0.975 µM)
- Activity (Klebsiella pneumoniae [6]): inactive
- Activity (Escherichia coli [7]): inactive
- fold change (FC) (Klebsiella pneumoniae [8]): 8
- MIC (Klebsiella pneumoniae [9]): 0.25 µg/mL (≈ 0.488 µM)
- MIC (Escherichia coli [10]): 32 µg/mL (≈ 62.4 µM)
- kcat/Km (Klebsiella pneumoniae [11]): 234000 M⁻¹ s⁻¹
- MIC (Escherichia coli [12]): 8 µg/mL (≈ 15.6 µM)
- fold change (FC) (Enterobacter cloacae [13]): 4
- Activity (Enterobacter cloacae [14]): inactive
- remaining at 15 h [15]: > 95%
- fold change (FC) (Escherichia coli [16]): 1
- MIC (Escherichia coli [17]): 16 µg/mL (≈ 31.2 µM)
- fold change (FC) (Klebsiella pneumoniae [18]): 4
- fold change (FC) (Escherichia coli [19]): 2
- Activity (Escherichia coli [20]): inactive
- MIC (Enterobacter cloacae [21]): 4 µg/mL (≈ 7.8 µM)
- fold change (FC) (Klebsiella pneumoniae [22]): 16
- MIC (Enterobacter cloacae [23]): 8 µg/mL (≈ 15.6 µM)
- MIC (Klebsiella pneumoniae [24]): 1 µg/mL (≈ 1.95 µM)
- fold change (FC) (Escherichia coli [25]): 4
- MIC (Escherichia coli [26]): 4 µg/mL (≈ 7.8 µM)
- IC50 [27]: 30 µM
- IC50 [28]: 19 µM
- MIC (Enterobacter cloacae [29]): 8 µg/mL (≈ 15.6 µM)
- IC50 [30]: 48 µM
- fold change (FC) (Enterobacter cloacae [31]): 2
- Km (Klebsiella pneumoniae [32]): 175 µM
- IC50 [33]: 51 µM
- kcat (Klebsiella pneumoniae [34]): 41 s⁻¹
- fold change (FC) (Escherichia coli [35]): 1
- MIC (Escherichia coli [36]): 8 µg/mL (≈ 15.6 µM)

Structure (SMILES): O=C(Cc1ccccc1)N[C@@H]1C(=O)N2C(C(=O)O)=C(CSCCc3ccccc3)CS[C@H]12
- fold change (FC) (Escherichia coli [1]): 2
- fold change (FC) (Escherichia coli [2]): 2
- fold change (FC) (Enterobacter cloacae [3]): 2
- MIC (Escherichia coli [4]): 16 µg/mL (≈ 34.1 µM)
- MIC (Klebsiella pneumoniae [5]): 0.25 µg/mL (≈ 0.534 µM)
- Activity (Klebsiella pneumoniae [6]): inactive
- Activity (Escherichia coli [7]): inactive
- fold change (FC) (Klebsiella pneumoniae [8]): 16
- MIC (Klebsiella pneumoniae [9]): 0.25 µg/mL (≈ 0.534 µM)
- MIC (Escherichia coli [10]): 32 µg/mL (≈ 68.3 µM)
- kcat/Km (Klebsiella pneumoniae [11]): 73000 M⁻¹ s⁻¹
- MIC (Escherichia coli [12]): 8 µg/mL (≈ 17.1 µM)
- fold change (FC) (Enterobacter cloacae [13]): 2
- Activity (Enterobacter cloacae [14]): inactive
- fold change (FC) (Escherichia coli [16]): 2
- MIC (Escherichia coli [17]): 16 µg/mL (≈ 34.1 µM)
- fold change (FC) (Klebsiella pneumoniae [18]): 8
- fold change (FC) (Escherichia coli [19]): 4
- Activity (Escherichia coli [20]): inactive
- MIC (Enterobacter cloacae [21]): 8 µg/mL (≈ 17.1 µM)
- fold change (FC) (Klebsiella pneumoniae [22]): 16
- MIC (Enterobacter cloacae [23]): 8 µg/mL (≈ 17.1 µM)
- MIC (Klebsiella pneumoniae [24]): 0.5 µg/mL (≈ 1.07 µM)
- fold change (FC) (Escherichia coli [25]): 4
- MIC (Escherichia coli [26]): 4 µg/mL (≈ 8.54 µM)
- IC50 [27]: 4.3 µM
- IC50 [28]: 49 µM
- MIC (Enterobacter cloacae [29]): 8 µg/mL (≈ 17.1 µM)
- IC50 [30]: 2.2 µM
- fold change (FC) (Enterobacter cloacae [31]): 2
- Km (Klebsiella pneumoniae [32]): 83.3 µM
- kcat (Klebsiella pneumoniae [34]): 6.12 s⁻¹
- fold change (FC) (Escherichia coli [35]): 1
- MIC (Escherichia coli [36]): 4 µg/mL (≈ 8.54 µM)

Structure (SMILES): O=C(Cc1ccccc1)N[C@H](C(=O)O)[C@@H]1N=C(C(=O)O)C(CSC(Cc2ccccc2)C(=O)O)CS1 (stereo partly specified)
- inhibition (Klebsiella pneumoniae [37]): Active
- inhibition (Enterobacter cloacae [38]): Active
- Kd [39]: 3.19 µM

Structure (SMILES): O=C(Cc1ccccc1)N[C@H](C(=O)O)[C@@H]1N=C(C(=O)O)C(CSC(C(=O)O)c2ccccc2)CS1 (stereo partly specified)
- inhibition (Klebsiella pneumoniae [37]): Active
- inhibition (Enterobacter cloacae [38]): Active
- Kd [39]: 9.67 µM
